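These data come from cells grown in 96-well plates and exposed to compound for 48 hours at five concentrations. Here, GI50 denotes the concentration required for 50% inhibition of growth. Definition used: TGI = concentration required for complete inhibition of growth.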
What was measured:
Test in all cases: growth of human tumour cells (NCI), 48 h
[1] = test system: HOP-92 NSCLC
[2] = test system: HCC-2998 colon
[3] = test system: HT29 colon
[4] = test system: CAKI-1 renal
[5] = test system: PC-3 prostate
[6] = test system: U251 CNS
[7] = test system: SK-OV-3 ovarian
[8] = test system: LOX IMVI melanoma
[9] = test system: SK-MEL-28 melanoma
[10] = test system: MOLT-4 leukemia
[11] = test system: IGROV1 ovarian
[12] = test system: HCT-116 colon
[13] = test system: BT-549 breast
[14] = test system: OVCAR-5 ovarian
[15] = test system: CCRF-CEM leukemia
[16] = test system: A498 renal
[17] = test system: HOP-62 NSCLC
[18] = test system: UACC-62 melanoma
[19] = test system: OVCAR-4 ovarian
[20] = test system: SNB-19 CNS
[21] = test system: MDA-MB-231 breast
[22] = test system: HCT-15 colon
[23] = test system: COLO 205 colon
[24] = test system: T-47D breast
[25] = test system: DU-145 prostate
[26] = test system: SK-MEL-5 melanoma
[27] = test system: HL-60(TB) leukemia
[28] = test system: RXF 393 renal
[29] = test system: NCI-H460 lung
[30] = test system: NCI/ADR-RES ovarian
[31] = test system: OVCAR-8 ovarian
[32] = test system: SF-539 CNS
[33] = test system: SF-295 CNS
[34] = test system: SNB-75 CNS
[35] = test system: NCI-H23 lung
[36] = test system: K-562 leukemia
[37] = test system: MALME-3M melanoma
[38] = test system: RPMI-8226 leukemia
[39] = test system: SW-620 colon
[40] = test system: UO-31 renal
[41] = test system: SK-MEL-2 melanoma
[42] = test system: MCF7 breast
[43] = test system: OVCAR-3 ovarian
[44] = test system: 786-0 renal
[45] = test system: SN12C renal
[46] = test system: A549 NSCLC
[47] = test system: SF-268 CNS
[48] = test system: NCI-H522 lung
[49] = test system: TK-10 renal
[50] = test system: HS 578T breast
[51] = test system: UACC-257 melanoma
[52] = test system: NCI-H226 lung
[53] = test system: EKVX NSCLC
[54] = test system: SR leukemia
[55] = test system: KM12 colon
[56] = test system: MDA-MB-435
[57] = test system: ACHN renal
[58] = test system: M14 melanoma

With `N[C@@H]1CCCN(c2c(Br)cnc3[nH]cc(NC(=O)C4CC4)c23)C1` the GI50 [1] was 1.02 µM, the TGI [1] was > 55.8 µM and the GI50 [2] was 0.399 µM. For the same compound, the TGI [2] was > 100 µM, the GI50 [3] was 1.01 µM and the TGI [3] was > 100 µM. The GI50 [4] was 0.518 µM, the TGI [4] was 6 µM and the GI50 [5] was 20.3 µM. For the same compound, the TGI [5] was > 100 µM, the GI50 [6] was 7.96 µM and the TGI [6] was > 100 µM. For the same compound, the GI50 [7] was 0.448 µM, the TGI [7] was > 100 µM and the GI50 [8] was 0.435 µM. For the same compound, the TGI [8] was 13.4 µM, the GI50 [9] was 77.2 µM and the TGI [9] was > 100 µM. For the same compound, the GI50 [10] was 0.279 µM, the TGI [10] was > 100 µM and the GI50 [11] was 0.409 µM. The TGI [11] was > 100 µM, the GI50 [12] was 10.6 µM and the TGI [12] was > 100 µM. The GI50 [13] was 0.45 µM, the TGI [13] was 38 µM and the GI50 [14] was 0.478 µM. For the same compound, the TGI [14] was > 100 µM, the GI50 [15] was 0.211 µM and the TGI [15] was > 100 µM. It also gave a GI50 [16] of 0.0412 µM, a TGI [16] of 0.182 µM and a GI50 [17] of 0.646 µM. For the same compound, the TGI [17] was > 100 µM, the GI50 [18] was 0.464 µM and the TGI [18] was > 100 µM. The GI50 [19] was 0.341 µM, the TGI [19] was > 100 µM and the GI50 [20] was 0.692 µM. For the same compound, the TGI [20] was > 100 µM, the GI50 [21] was 2.91 µM and the TGI [21] was 77.5 µM. The GI50 [22] was 0.54 µM, the TGI [22] was > 100 µM and the GI50 [23] was 2.27 µM. For the same compound, the TGI [23] was 59 µM, the GI50 [24] was 38.2 µM and the TGI [24] was > 100 µM. For the same compound, the GI50 [25] was 0.459 µM, the TGI [25] was > 100 µM and the GI50 [26] was 0.469 µM. It also gave a TGI [26] of 2.24 µM, a GI50 [27] of 0.318 µM and a TGI [27] of 4.51 µM. It also gave a GI50 [28] of 0.0618 µM, a TGI [28] of 0.27 µM and a GI50 [29] of 0.785 µM. The TGI [29] was > 100 µM, the GI50 [30] was 0.393 µM and the TGI [30] was > 70.7 µM. The GI50 [31] was 0.51 µM, the TGI [31] was > 100 µM and the GI50 [32] was 0.0809 µM. The TGI [32] was 0.503 µM, the GI50 [33] was 0.328 µM and the TGI [33] was > 100 µM. For the same compound, the GI50 [34] was 1.53 µM, the TGI [34] was 7.54 µM and the GI50 [35] was 0.234 µM. The TGI [35] was > 100 µM, the GI50 [36] was 0.303 µM and the TGI [36] was > 100 µM. For the same compound, the GI50 [37] was 1.27 µM, the TGI [37] was > 100 µM and the GI50 [38] was 0.68 µM. For the same compound, the GI50 [39] was 2.06 µM, the TGI [39] was > 100 µM and the GI50 [40] was 0.232 µM. For the same compound, the TGI [40] was 1.06 µM, the GI50 [41] was 0.492 µM and the TGI [41] was > 100 µM. For the same compound, the GI50 [42] was 0.123 µM, the TGI [42] was > 100 µM and the GI50 [43] was 0.364 µM. The TGI [43] was > 100 µM, the GI50 [44] was 0.22 µM and the TGI [44] was 0.709 µM. For the same compound, the GI50 [45] was 1.78 µM, the TGI [45] was > 100 µM and the GI50 [46] was 1.5 µM. The TGI [46] was > 100 µM, the GI50 [47] was 3.92 µM and the TGI [47] was > 100 µM. The GI50 [48] was 13 µM, the TGI [48] was > 100 µM and the GI50 [49] was 0.606 µM. The TGI [49] was > 68.6 µM, the GI50 [50] was 0.417 µM and the TGI [50] was 26.1 µM. The TGI [51] was > 100 µM, the GI50 [52] was 11 µM and the TGI [52] was > 94.6 µM. The GI50 [53] was 2.32 µM, the TGI [53] was > 31.6 µM and the GI50 [54] was 0.112 µM. The TGI [54] was > 100 µM, the GI50 [55] was 0.67 µM and the TGI [55] was > 100 µM.
For `CN(C)C(=O)C(F)(F)C(c1ccccc1Br)C1C(=O)N(C)C(=O)N(C)C1=O` (configuration not stated), the TGI [1] was > 100 µM, the TGI [2] was > 100 µM and the TGI [4] was > 100 µM. The TGI [5] was > 100 µM, the TGI [6] was > 100 µM and the TGI [56] was > 100 µM. The TGI [7] was > 100 µM, the TGI [8] was > 100 µM and the TGI [9] was > 100 µM. The TGI [57] was > 100 µM, the TGI [12] was > 100 µM and the TGI [13] was > 100 µM. The TGI [14] was > 100 µM, the TGI [15] was > 100 µM and the TGI [16] was > 100 µM. For the same compound, the TGI [17] was > 100 µM, the TGI [18] was > 100 µM and the TGI [19] was > 100 µM. The TGI [20] was > 100 µM, the TGI [21] was > 100 µM and the TGI [22] was > 100 µM. For the same compound, the TGI [23] was > 100 µM, the TGI [24] was > 100 µM and the TGI [25] was > 100 µM. The TGI [26] was > 100 µM, the TGI [28] was > 100 µM and the TGI [29] was > 100 µM. The TGI [30] was > 100 µM, the TGI [31] was > 100 µM and the TGI [33] was > 100 µM. For the same compound, the TGI [34] was > 100 µM, the TGI [35] was > 100 µM and the TGI [36] was > 100 µM. For the same compound, the TGI [37] was > 100 µM, the TGI [38] was > 100 µM and the TGI [39] was > 100 µM. For the same compound, the TGI [40] was > 100 µM, the TGI [41] was > 100 µM and the TGI [42] was > 100 µM. The TGI [43] was > 100 µM, the TGI [44] was > 100 µM and the TGI [46] was > 100 µM. The TGI [47] was > 100 µM, the TGI [49] was > 100 µM and the TGI [51] was > 100 µM. For the same compound, the TGI [52] was > 100 µM, the TGI [53] was > 100 µM and the TGI [55] was > 100 µM. For the same compound, the TGI [58] was > 100 µM.

Reference: PubChem BioAssay (NCI)
